Results reported in article PMC1198225, “Novel curcumin- and emodin-related compounds identified by in silico 2D/3D conformer screening induce apoptosis in tumor cells” (BMC Cancer, 2005).
Where two headings read alike, the source gives them in different places.

Columns and labels:
[1] = molecular target: T1, recombinant PKD (Homo sapiens, UniProt Q15139); experiment: [γ-32P]ATP phosphorylation of c-Jun, SDS-PAGE autoradiography, densitometry; format: biochemical
T1 construct: gene PRKD1; commercial recombinant kinase (Upstate)
T1 sequence (Q15139 1-912): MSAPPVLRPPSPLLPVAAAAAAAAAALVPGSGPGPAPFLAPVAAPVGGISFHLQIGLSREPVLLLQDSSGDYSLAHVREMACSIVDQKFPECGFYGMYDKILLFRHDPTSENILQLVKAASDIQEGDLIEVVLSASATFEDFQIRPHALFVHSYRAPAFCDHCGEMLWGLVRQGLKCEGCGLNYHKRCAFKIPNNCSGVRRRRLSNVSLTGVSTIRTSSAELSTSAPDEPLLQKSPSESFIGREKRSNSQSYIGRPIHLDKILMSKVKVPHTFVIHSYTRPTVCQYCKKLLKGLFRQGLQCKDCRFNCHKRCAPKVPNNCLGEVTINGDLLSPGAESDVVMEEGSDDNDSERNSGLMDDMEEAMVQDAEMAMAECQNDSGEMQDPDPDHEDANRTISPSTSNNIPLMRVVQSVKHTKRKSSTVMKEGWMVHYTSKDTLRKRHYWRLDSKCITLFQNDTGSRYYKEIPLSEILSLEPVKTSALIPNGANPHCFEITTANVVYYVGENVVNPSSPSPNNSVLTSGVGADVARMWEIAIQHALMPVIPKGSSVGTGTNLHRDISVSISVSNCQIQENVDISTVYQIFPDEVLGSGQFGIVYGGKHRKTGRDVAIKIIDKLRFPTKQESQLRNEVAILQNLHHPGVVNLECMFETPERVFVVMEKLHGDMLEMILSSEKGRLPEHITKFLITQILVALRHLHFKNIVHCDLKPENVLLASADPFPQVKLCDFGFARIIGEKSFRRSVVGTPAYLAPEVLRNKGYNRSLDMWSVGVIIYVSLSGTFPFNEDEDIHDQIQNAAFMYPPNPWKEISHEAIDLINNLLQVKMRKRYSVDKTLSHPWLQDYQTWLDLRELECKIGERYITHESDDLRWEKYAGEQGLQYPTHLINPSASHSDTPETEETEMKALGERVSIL
Text: [γ-32P]ATP phosphorylation of c-Jun, SDS-PAGE autoradiography, densitometry on recombinant PKD

[2] = molecular target: T2, Recombinant CK2 (2α2β) (Homo sapiens, UniProt P68400); experiment: as above; format: biochemical
T2 construct: gene CSNK2A1; commercial recombinant holoenzyme (Calbiochem), alpha2beta2 tetramer; with Casein kinase II subunit beta
T2 sequence (P68400 whole entry): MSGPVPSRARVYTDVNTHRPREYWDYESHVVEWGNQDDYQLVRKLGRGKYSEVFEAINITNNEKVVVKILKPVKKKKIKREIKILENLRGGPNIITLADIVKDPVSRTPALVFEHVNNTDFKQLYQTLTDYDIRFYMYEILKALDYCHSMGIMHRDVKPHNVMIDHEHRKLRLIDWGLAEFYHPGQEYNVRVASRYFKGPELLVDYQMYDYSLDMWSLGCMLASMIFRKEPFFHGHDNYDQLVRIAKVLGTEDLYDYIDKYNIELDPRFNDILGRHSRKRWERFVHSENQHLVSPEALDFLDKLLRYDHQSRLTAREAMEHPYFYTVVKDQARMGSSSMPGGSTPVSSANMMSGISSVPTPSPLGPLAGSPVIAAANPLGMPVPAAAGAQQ
T2 sequence (P67870 2-215 partner): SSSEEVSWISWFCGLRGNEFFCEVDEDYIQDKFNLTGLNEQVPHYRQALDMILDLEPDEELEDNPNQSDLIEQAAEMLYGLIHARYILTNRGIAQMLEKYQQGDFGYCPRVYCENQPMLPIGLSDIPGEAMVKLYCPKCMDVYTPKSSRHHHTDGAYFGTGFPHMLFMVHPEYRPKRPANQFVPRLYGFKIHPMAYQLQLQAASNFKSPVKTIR
Text: [γ-32P]ATP phosphorylation of c-Jun, SDS-PAGE autoradiography, densitometry on Recombinant CK2 (2α2β)

| Structure (SMILES) | IC50 ([1]; read-out: IC50 PKD) [µM] | IC50 ([2]; read-out: IC50 CK2) [µM] | IC50 [1] [µM] | IC50 [2] [µM] |
| --- | --- | --- | --- | --- |
| Oc1cc(O)cc(/C=C/c2ccc(O)c(O)c2)c1 [Piceatannol] | 0.5 | 2.5 |  |  |
| COc1ccc2c(=O)c3ccccc3n(C)c2c1 [JFD02836, 3-methoxy-10-methyl-9,10-dihydro-9-acridinone] |  |  | 39.7 | 19.9 |
| O=C1C=CC(=O)c2c1c(O)c1ccccc1c2O [BTB14431, 9,10-dihydroxy-1,4-dihydroanthracene-1,4-dione] |  |  | 68.9 | 6.4 |
| Nc1c2c(nc3cccc(F)c13)OCCC2 [SEW04213, 6-fluoro-3,4-dihydro-2H-pyrano [2,3-b]quinolin-5-amine] |  |  | 186 | 37.9 |
| O=C1C(=CO)c2ccccc2-c2ccccc21 [JFD03665, 10-(hydroxymethylene)phenanthren-9(10H)-one] |  |  | 155 | 5.9 |
| O=C(NN=Cc1cc(Cl)cc(Cl)c1O)c1ccccn1 [BTB00363, 2-Pyridinecarboxylic acid, [(3,5-dichloro-2-hydroxyphenyl)methylene]hydrazide] | 118 | 333 |  |  |
